Counter-ions that a name gives are not always drawn. Like-named read-outs stand apart in the source and are kept apart here.
How the values were obtained:
[1] = biological target: T1, human adenosine A3 receptors (Homo sapiens, UniProt P0DMS8); assay: Test of adenosine A3 receptor binding ([125I]AB-MECA, transfected HEK293 cell homogenate); conditions: for inhibition at 0.1 µM: read-out: The rate of inhibition (%) 10^-7 M; for inhibition at 0.01 µM: read-out: The rate of inhibition (%) 10^-8 M
T1 construct: expressed in transfected cells; host or cells: HEK293
T1 sequence (P0DMS8 1-318): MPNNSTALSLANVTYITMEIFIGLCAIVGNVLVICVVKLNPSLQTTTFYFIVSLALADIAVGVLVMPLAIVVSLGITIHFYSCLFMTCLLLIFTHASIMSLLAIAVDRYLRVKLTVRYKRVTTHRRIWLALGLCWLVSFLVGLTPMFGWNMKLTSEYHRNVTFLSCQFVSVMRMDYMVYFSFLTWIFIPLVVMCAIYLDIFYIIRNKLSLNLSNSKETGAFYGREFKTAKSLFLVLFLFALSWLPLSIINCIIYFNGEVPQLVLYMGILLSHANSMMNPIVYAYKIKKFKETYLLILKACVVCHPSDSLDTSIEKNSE
Method: The transfected HEK293 cells that expressed the human adenosine A3 receptors were homogenized in 5 mM tris(hydroxymethyl)aminomethane hydrochloric acid buffer containing 5 mM magnesium chloride (pH 7.6) by a Teflon homogenizer (Iuchiseieido Corp.). The resultant suspension was centrifuged (4000×g, 20 minutes), and a 50 mM tris(hydromethyl)aminomethane/10 mM magnesium chloride/hydrochloric acid buffer (pH 7.6) (referred to as "the Tris-HCl buffer" hereinafter) was added to the precipitate to generate the cell suspension ( the protein concentration 0.25 mg/ml). To the cell suspension was added adenosine deaminase so that the concentration was 2 U/ml, and the resultant mixture was used in the following binding experiment.
The glass fiber filter was transferred to a polypropylene tube, and the radioactivity was measured by a gamma counter (Packard Corp.).
(Rate of inhibition)=(A-B)/(C-D)×100
A: Amount of binding in the presence of the test compound
B: Amount of non-specific binding
C: Amount of total binding
D: Amount of non-specific binding

ddY mice = conditions: mouse, in vivo
From the text: A group consisting of three ddY mice (Japanese SLC) having a body weight of 19 to 21 g was used. One week after oral administration of compound 5, death of the mice was observed.

[2] = tested on: compound 48/80 induced pruritic action; assay: Test of inhibition of compound 48/80 induced pruritic action (scratching behavior in mice); type: in vivo, ddy mice; conditions: for (A) The number of scratching behavior/10 minutes: compound 48/80 0.5 mg/kg s.c., n=10; for (B) The rate of inhibition (%): number of scratching behavior relative to control group
Method: A group consisting of 10 ddy mice (Japanese SLC) having a body weight of […] was used in the test. After compound 5 was orally administered, 0.5 mg/kg of compound 48/80 was subcutaneously administered in a volume of 0.1 ml per 20 g. 10 minutes after administration of compound 48/80, the number of scratching behavior was measured for 10 minutes. The rate of inhibition of the group of mice administered with compound 5 relative to the number of scratching behavior of a control group was calculated, and ED50 was calculated from the rate of inhibition.

[3] = 10^-7 M test compound, [125I]AB-MECA 0.1 nM
[4] = 10^-8 M test compound, [125I]AB-MECA 0.1 nM

| SMILES | inhibition at 0.1 µM [1, 3] | inhibition at 0.01 µM [1, 4] | also measured |
| --- | --- | --- | --- |
| CCCN1C(=O)N2C[C@@H](C(C)C)N=C2c2[nH]c(-c3ccc(Br)cc3)nc21 [Compound 32, (R)-2-(p-Bromophenyl)-8-isopropyl-4-propyl-1,4,7,8-tetrahydro-5H-imidazo[2,1-i]purine-5-one] | 120% | 84% | – |
| CCCN1C(=O)N2C[C@@H](c3ccccc3)N=C2c2[nH]c(-c3ccc(Br)cc3)nc21 [Compound 35, (R)-2-(p-Bromophenyl)-8-phenyl-4-propyl-1,4,7,8-tetrahydro-5H-imidazo[2,1-i]-purine-5-one] | 52% | 94% | – |
| CCN1C(=O)N2CC(C)N=C2c2[nH]c(-c3ccc(Br)cc3)nc21 (centres unmarked) [Compound 3, 2-(p-Bromophenyl)-4-ethyl-8-methyl-1,4,7,8-tetrahydro-5H-imidazo [2,1-i]-purine-5-one hydrochloride] | – | – | inhibition at 0.1 µM [1]: 96%; inhibition at 0.01 µM [1]: 65% |
| CCOC(=O)/C=C/c1ccc(-c2nc3c([nH]2)C2=NCCCN2C(=O)N3CC)cc1 [Compound 14, Ethyl (E)-4-(4-ethyl-1,4,5,7,8,9-hexahydropyrimido [2,1-i]purine-5-one-2-yl)cinnamate] | 55% | 29% | – |
| CCN1C(=O)N2CCCN=C2c2[nH]c(-c3ccc(Br)cc3)nc21 [Compound 2, 2-(p-Bromophenyl)-4-ethyl-1,4,5,7,8,9-hexahydropyrimido [2,1-i]purine-5-onehydrochloride] | 55% | 29% | – |
| CCOC(=O)/C=C/c1ccc(-c2nc3c([nH]2)C2=NC(CC)CN2C(=O)N3CC)cc1 (centres unmarked) [Compound 16, Ethyl (E)-4-(4,8-diethyl-1,4,7,8-tetrahydro-5H-imidazo-[2,1-i]purine-5-one-2-yl)cinnamate] | 92% | 17% | – |
| CCC1CN2C(=O)N(CC)c3nc(-c4ccc(/C=C/C(=O)O)cc4)[nH]c3C2=N1 (centres unmarked) [Compound 17, (E)-4-(4,8-Diethyl-1,4,7,8-tetrahydro-5H-imidazo [2,1-i]-purine-5-one-2-yl)cinnamic acid] | 70% | 36% | – |
| CCN1C(=O)N2CCCN=C2c2[nH]c(-c3ccc(/C=C/C(=O)O)cc3)nc21 [Compound 15, (E)-4-(4-Ethyl-1,4,5,7,8,9-hexahydropyrimido [2,1-i]-purine-5-one-2-yl)cinnamic acid] | 66% | 21% | – |
| CCOC(=O)/C=C/c1ccc(-c2nc3c([nH]2)C2=NCCN2C(=O)N3CC)cc1 [Compound 13, Ethyl (E)-4-(4-ethyl-1,4,7,8-tetrahydro-5H-imidazo [2,1-i]purine-5-one-2-yl)cinnamate] | 76% | 75% | – |
| CCN1C(=O)N2CCN=C2c2[nH]c(-c3ccc(Br)cc3)nc21 [Compound 1, 2-(p-Bromophenyl)-4-ethyl-1,4,7,8-tetrahydro-5H-imidazo[2,1-i]purine-5-one hydrochloride] | – | – | inhibition at 0.1 µM [1]: 97%; inhibition at 0.01 µM [1]: 88% |
| CCCN1C(=O)N2CCCN=C2c2[nH]c(-c3ccc(Br)cc3)nc21 [Compound 6, hydrochloride] | – | 98% | – |
| CCC1CN2C(=O)N(CC)c3nc(-c4ccc(Br)cc4)[nH]c3C2=N1 (centres unmarked) [Compound 4, 2-(p-Bromophenyl)-4,8-diethyl-1,4,7,8-tetrahydro-5H-imidazo[2,1-i]purine-5-one hydrochloride] | – | – | inhibition at 0.1 µM [1]: 90%; inhibition at 0.01 µM [1]: 73% |
| CCCCN1C(=O)N2CCN=C2c2[nH]c(-c3ccc(Br)cc3)nc21 [Compound 26, 2-(p-Bromophenyl)-4-n-butyl-1,4,7,8-tetrahydro-5H-imidazo[2,1-i]purine-5-one hydrochloride] | – | – | inhibition at 0.01 µM [1]: 85% |
| CCC1CN2C(=O)N(C)c3nc(-c4ccc(Br)cc4)[nH]c3C2=N1 (centres unmarked) [Compound 25, 2-(p-Bromophenyl)-8-ethyl-4-methyl-1,4,7,8-tetrahydro-5H-imidazo[2,1-i]purine-5-one hydrochloride] | – | – | inhibition at 0.1 µM [1]: 97%; inhibition at 0.01 µM [1]: 94% |
| CCCN1C(=O)N2CCN=C2c2[nH]c(-c3ccc(Br)cc3)nc21.Cl [Compound 5, 2-(p-Bromophenyl)-4-propyl-1,4,7,8-tetrahydro-5H-imidazo [2,1-i]purine-5-one hydrochloride] | – | – | death of the mice (ddY mice): no death was observed; (A) The number of scratching behavior/10 minutes ([2]; 30 mg/kg p.o.): 10.70 ± 4.45 /10 minutes; (B) The rate of inhibition (%) ([2]; 30 mg/kg p.o.): 34.0%; (A) The number of scratching behavior/10 minutes ([2]; 100 mg/kg p.o.): 7.60 ± 3.12 /10 minutes; (B) The rate of inhibition (%) ([2]; 100 mg/kg p.o.): 53.1%; (A) The number of scratching behavior/10 minutes ([2]; 300 mg/kg p.o.): 6.00 ± 2.88 /10 minutes; (B) The rate of inhibition (%) ([2]; 300 mg/kg p.o.): 63.0%; ED50 ([2]; Mus musculus, po, calculated from the rate of inhibition): 96.8 mg/kg; inhibitory action on the compound 48/80 induced itching ([2]; p.o., mice): exhibited its inhibitory action |
| CCCN1C(=O)N2C[C@H](C(C)C)N=C2c2[nH]c(-c3ccc(Br)cc3)nc21 [Compound 33, (S)-2-(p-Bromophenyl)-8-isopropyl-4-propyl-1,4,7,8-tetrahydro-5H-imidazo[2,1-i]purine-5-one] | 95% | 89% | – |
| CCCN1C(=O)N2CC(CC)N=C2c2[nH]c(-c3ccc(Br)cc3)nc21 (centres unmarked) [Compound 8, 2-(p-Bromophenyl)-8-ethyl-4-propyl-1,4,7,8-tetrahydro-5H-imidazo[2,1-i]purine-5-one hydrochloride] | – | – | inhibition at 0.1 µM [1]: 96% |

— patent US6306847A, “Condensed purine derivatives” (Kyowa Hakko Kogyo Co., Ltd., priority 1996, dated 2001)
